IC50 data for 21 compounds are collected here from patent EP0547231B1, “PHOSPHOLIPASE A2 INHIBITOR” (SHIONOGI & CO., LTD., priority 1991, dated 1993).

Structures can show the parent of a compound that is named as a salt.

The assay addresses T1, PLA2 (phospholipase A2) (Rattus norvegicus, UniProt P14423).
T1 construct: from tissue; host or cells: rat platelets
T1 sequence (P14423 22-146): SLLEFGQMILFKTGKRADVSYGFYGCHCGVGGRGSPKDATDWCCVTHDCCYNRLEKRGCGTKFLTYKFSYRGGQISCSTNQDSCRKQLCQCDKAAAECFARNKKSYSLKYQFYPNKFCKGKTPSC
As to the kind of experiment: Phospholipase A2 inhibitory activity (release of free fatty acid from 14C-labelled phosphatidylethanolamine). The assay is classed as biochemical. To be noted: PLA2 from rat platelets; CaCl2 (3 mM) in Tris-buffer (0.1 M, pH 7.4); 37 °C for 20 minutes. The method, then: The compounds of the present invention were tested for their Phospholipase A2 inhibitory activity by the following procedure.
1-Palmitoyl-2-[1-^14C]-linoleoyl L-3-Phosphatidylethanolamine (Amersham, Inc., 59 mCi/mmol) were diluted with L-α-phosphatidylethanolamine (Sigma, Co., from […]) [2,000 dpm/nmol], and the dilution was sonicated. The resultant dilution was used as a substrate. The PLA2 (phospholipase A2) which was used in the test was from rat platelets. The PLA2 and the substrate preparation were added to a solution of CaCl2 (3 mM) in Tris-buffer (0.1 M, pH 7.4), and the mixture was allowed to react at 37 °C for 20 minutes. Then, the reaction was terminated by adding 1.25 ml of Dole's reagent to the reaction mixture and stirring immediately the resultant mixture. To the mixture was added 0.5 ml of distilled water and 0.8 ml of n-heptane, and the mixture was stirred, centrifuged, and the supernatant was taken into another tube. To this supernatant were added an additional 0.8 ml of n-heptane and silica gel, and the mixture was stirred, centrifuged, and the supernatant was taken into vials. Toluene cocktail was added to the vials. The amount of free fatty acid released by PLA2 was determined using a liquid scintillation counter.
Inhibitory activity (%) was estimated by the formula: [(DPM value at the addition of the inhibitor - DPM value without PLA2) / (DPM value with only PLA2 - DPM value without PLA2)] × 100.
As usually defined, the IC50 is the concentration that inhibits the measured activity by half. Low values mean greater potency, high ones weaker potency. As to `COc1c(C)c(OC)c(C(=O)Oc2cc(C)c(C(=O)Oc3c(C)c(C)c(C(=O)Oc4c(C)c(C)c(C(=O)O)c(OC)c4C)c(OC)c3C)c(O)c2C)c(C)c1Oc1ccc(C[C@H](N)C(=O)O)cc1` [Compound 74, [5-[4'-[4''-(4'''-Carboxy-3'''-methoxy-2''',5''',6'''-trimethylphenoxycarbony)-3''-methoxy-2'',5'',6''-trimethylphenoxycarbony]-3'-hydroxy-2',5'-dimethylphenoxycarbony]-2,4-dimethoxy-3,6-dimethylphenyl] [4''''-(2'''''-amino-2'''''-carboxyethyl)phenyl] ether trifluoroacetate], the IC50 was 0.07 µM.
Take `COc1c(C)c(O)c(C)c(C)c1C(=O)O` [Compound 9]: the IC50 was > 480 µM.
The same measure for `COc1ccc(S(=O)(=O)c2ccc(OC)c(C(=O)Oc3c(C)c(C)c(C(=O)Oc4c(C)c(C)c(C(=O)O)c(OC)c4C)c(OC)c3C)c2)cc1C(=O)Oc1c(C)c(C)c(C(=O)Oc2c(C)c(C)c(C(=O)O)c(OC)c2C)c(OC)c1C` [Compound 104b, Bis[3-[4'-[(4''-carboxy-3''-methoxy-2'',5'',6''-trimethyl)phenoxycarbony]-3'-methoxy-2',5',6'-trimethyl]-phenoxycarbony-4-methoxyphenyl] sulfone]: 0.05 µM.
In the case of `COc1c(C)c(OC)c(C(=O)Oc2c(C)c(C)c(C(=O)Oc3c(C)c(C)c(C(=O)O)c(OC)c3C)c(OC)c2C)c(C)c1Cc1c(C)c(C(=O)Oc2c(C)c(C)c(C(=O)Oc3c(C)c(C)c(C(=O)O)c(OC)c3C)c(OC)c2C)c(OC)c(C)c1OC` [Compound 44, Bis[5-[4'-(4''-carboxy-3''-methoxy-2'',5'',6''-trimethylphenoxycarbonyl)-3'-methoxy-2',5',6',-trimethylphenoxycarbonyl]-2,4-dimethoxy-3,6-dimethylphenyl] methane], it took 0.13 µM to reach half-maximal inhibition (IC50).
Under `Cc1c(O)c(Cc2c(C)c(C(=O)Oc3c(C)c(C)c(C(=O)Oc4c(C)c(C)c(C(=O)O)c(O)c4C)c(O)c3C)c(O)c(C)c2O)c(C)c(C(=O)Oc2c(C)c(C)c(C(=O)Oc3c(C)c(C)c(C(=O)O)c(O)c3C)c(O)c2C)c1O` [Compound 62, Bis[5-[4'-(4''-carboxy-3''-hydroxy-2'',5'',6''-trimethylphenoxycarbonyl)-3'-hydroxy-2',5',6'-trimethylphenoxycarbonyl]-2,4-dihydroxy-3,6-dimethylphenyl] methane] stands 0.95 µM; under `COc1ccc(Oc2ccc(OC)c(C(=O)Oc3c(C)c(C)c(C(=O)O)c(OC)c3C)c2)cc1C(=O)Oc1c(C)c(C)c(C(=O)O)c(OC)c1C` [Compound 110a, Bis[3-[4'-carboxy-3'-methoxy-2',5',6'-trimethylphenoxycarbonyl)-4-methoxyphenyl] ether], 3.4 µM; under `COc1c(C)c(OC)c(C(=O)O)c(C)c1Cc1c(C)c(C(=O)Oc2c(C)c(C)c(C(=O)Oc3c(C)c(C)c(C(=O)O)c(OC)c3C)c(OC)c2C)c(OC)c(C)c1OC` [Compound 48], 3 µM.
As to `COc1ccc(Sc2ccc(OC)c(C(=O)Oc3c(C)c(C)c(C(=O)Oc4c(C)c(C)c(C(=O)O)c(OC)c4C)c(OC)c3C)c2)cc1C(=O)O` [Compound 108], the IC50 came out at 2.1 µM. This IC50 and that of the compound before are within 1.5-fold of each other.
Regarding `COc1c(C)c(OC(=O)c2c(C)c(C)c(OC(=O)c3cc(=O)cc(C(=O)Oc4c(C)c(C)c(C(=O)Oc5c(C)c(C)c(C(=O)O)c(OC)c5C)c(OC)c4C)o3)c(C)c2OC)c(C)c(C)c1C(=O)O` [Compound 54], the IC50 amounted to 0.88 µM.
`COc1c(C)c(OC(=O)c2c(C)c(C)c(OC(=O)CCC(=O)Oc3c(C)c(C)c(C(=O)Oc4c(C)c(C)c(C(=O)O)c(OC)c4C)c(OC)c3C)c(C)c2OC)c(C)c(C)c1C(=O)O` [Compound 122, 1,2-Bis[4'-[4''-carboxy-3''-methoxy-2'',5'',6''-trimethylphenoxycarbonyl)-3'-methoxy-2',5',6'-trimethylphenoxycarbony] ethane] registered an IC50 of 0.04 µM. Against the preceding compound, the IC50 is about 22-fold lower.
The same measure for `COc1ccc([S+]([O-])c2ccc(OC)c(C(=O)Oc3c(C)c(C)c(C(=O)Oc4c(C)c(C)c(C(=O)O)c(OC)c4C)c(OC)c3C)c2)cc1C(=O)Oc1c(C)c(C)c(C(=O)Oc2c(C)c(C)c(C(=O)O)c(OC)c2C)c(OC)c1C` [Compound 104c, Bis[3-[4'-[(4''-carboxy-3''-methoxy-2'',5'',6''-trimethyl)phenoxycarbony]-3'-methoxy-2',5',6'-trimethyl]-phenoxycarbony-4-methoxyphenyl] sulfoxide]: 0.12 µM; for `COc1c(C)c(OC(=O)c2c(C)c(C)c(OC(=O)c3cccc(C(=O)Oc4c(C)c(C)c(C(=O)Oc5c(C)c(C)c(C(=O)O)c(OC)c5C)c(OC)c4C)c3)c(C)c2OC)c(C)c(C)c1C(=O)O` [Compound 52]: 0.16 µM.
The compound `COc1c(C)c(OC)c(C(=O)Oc2c(C)c(O)cc(C)c2C(=O)Oc2c(C)c(C)c(C(=O)Oc3c(C)c(C)c(C(=O)O)c(OC)c3C)c(OC)c2C)c(C)c1Oc1ccc(C[C@H](N)C(=O)O)cc1` [Compound 77, [5-[6'-[4''-(4'''-Carboxy-3'''-methoxy-2''',5''',6'''-trimethylphenoxycarbony)-3''-methoxy-2'',5'',6''-trimethylphenoxycarbony]-3'-hydroxy-2',5'-dimethylphenoxycarbony]-2,4-dimethoxy-3,6-dimethylphenyl] [4''''-(2'''''-amino-2'''''-carboxyethyl)phenyl] ether trifluoroacetate] showed an IC50 of 0.34 µM.
The same measure for `COc1ccc(Oc2ccc(OC)c(C(=O)Oc3c(C)c(C)c(C(=O)Oc4c(C)c(C)c(C(=O)O)c(OC)c4C)c(OC)c3C)c2)cc1C(=O)Oc1c(C)c(C)c(C(=O)Oc2c(C)c(C)c(C(=O)O)c(OC)c2C)c(OC)c1C` [Compound 120]: 0.042 µM.
The same measure for `COc1c(C)c(OCc2ccccc2)c(C)c(C)c1C(=O)O` [Compound 8]: > 330 µM; for `COc1ccc(Sc2ccc(OC)c(C(=O)Oc3c(C)c(C)c(C(=O)Oc4c(C)c(C)c(C(=O)O)c(OC)c4C)c(OC)c3C)c2)cc1C(=O)Oc1c(C)c(C)c(C(=O)Oc2c(C)c(C)c(C(=O)O)c(OC)c2C)c(OC)c1C` [Compound 104a, Bis[3-[4'-[(4''-carboxy-3''-methoxy-2'',5'',6''-trimethyl)phenoxycarbony]-3'-methoxy-2',5',6'-trimethyl]-phenoxycarbony-4-methoxyphenyl] sulfide]: 0.049 µM; for `COc1c(C)c(OC(=O)c2c(C)c(C)c(OC(=O)/C=C/C(=O)Oc3c(C)c(C)c(C(=O)Oc4c(C)c(C)c(C(=O)O)c(OC)c4C)c(OC)c3C)c(C)c2OC)c(C)c(C)c1C(=O)O` [Compound 121, Trans-1,2-bis[4'-(4''-carboxy-3''-methoxy-2'',5'',6''-trimethylphenoxycarbonyl)-3^'-methoxy-2',5',6'-trimethylphenoxycarbony] ethene]: 0.33 µM.
In the case of `COc1ccc(Sc2ccc(OC)c(C(=O)Oc3c(C)c(C)c(C(=O)O)c(OC)c3C)c2)cc1C(=O)Oc1c(C)c(C)c(C(=O)O)c(OC)c1C` [Compound 110b, Bis[3-(4'-carboxy-3'-methoxy-2',5',6'-trimethylphenoxycarbonyl)-4-methoxyphenyl] sulfide], the IC50 was found to be 2.5 µM. This IC50 lies about 7.6-fold higher than the previous one.
Under `COc1c(C)c(OC)c(C(=O)Oc2c(C)c(C)c(C(=O)O)c(OC)c2C)c(C)c1Cc1c(C)c(C(=O)Oc2c(C)c(C)c(C(=O)O)c(OC)c2C)c(OC)c(C)c1OC` [Compound 50] stands 4.6 µM.
Regarding `COc1cc(OC)c(C(=O)Oc2c(C)c(C)c(C(=O)Oc3c(C)c(C)c(C(=O)O)c(OC)c3C)c(OC)c2C)cc1Oc1cc(C)c(OC)c(C(=O)Oc2c(C)c(C)c(C(=O)Oc3c(C)c(C)c(C(=O)O)c(OC)c3C)c(OC)c2C)c1` [Compound 56], the IC50 came out at 0.035 µM.
The same measure for `CCCCOC(=O)c1cc(Sc2ccc(OC)c(C(=O)Oc3c(C)c(C)c(C(=O)O)c(OC)c3C)c2)ccc1OC` [Compound 59, n-Butyl 3-[3'-(4''-carboxy-3''-methoxy-2'',5'',6''-trimethylphenoxycarbonyl)-4'-methoxyphenyl]-thio-6-methoxybenzoate]: 1.45 µM.
